Source: ChEMBL document CHEMBL1136607, “Novel thrombin inhibitors incorporating non-basic partially saturated heterobicyclic P1-arginine mimetics” (Bioorg Med Chem Lett, 2003)
pKi: −log10 of the molar value.

Assays:
[1] = target: Serine protease 1 (Homo sapiens, UniProt P07477); experiment: In vitro inhibitory activity against Trypsin
[2] = species: Homo sapiens; experiment: Concentration required to double the thrombin time in human plasma (TT); type: functional, cell-free
[3] = target: Coagulation factor X (Homo sapiens, UniProt P00742); experiment: In vitro inhibitory activity against Factor Xa
Coagulation factor X, sequence (P00742 41-179 limits assumed): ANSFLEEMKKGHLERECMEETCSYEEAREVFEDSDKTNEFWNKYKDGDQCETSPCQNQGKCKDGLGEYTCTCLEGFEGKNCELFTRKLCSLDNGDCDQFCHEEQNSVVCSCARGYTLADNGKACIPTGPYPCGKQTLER
Coagulation factor X, sequence (P00742 235-488 limits assumed): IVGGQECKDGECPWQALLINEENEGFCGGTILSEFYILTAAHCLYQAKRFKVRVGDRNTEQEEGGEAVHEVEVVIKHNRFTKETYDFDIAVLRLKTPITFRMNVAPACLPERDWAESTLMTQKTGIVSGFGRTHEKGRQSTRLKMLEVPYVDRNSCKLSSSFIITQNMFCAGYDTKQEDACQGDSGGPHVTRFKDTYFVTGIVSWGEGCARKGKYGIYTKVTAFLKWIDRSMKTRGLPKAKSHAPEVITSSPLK

[4] = target: Prothrombin (Homo sapiens, UniProt P00734); experiment: In vitro inhibitory activity against Thrombin
[5] = species: Homo sapiens; experiment: Concentration required to double the activated partial thromboplastin time in human plasma (APTT); type: functional, cell-free
[6] = species: Homo sapiens; experiment: Concentration required to double the […] prothrombin time in human plasma (PT); type: functional, cell-free
[7] = target: Thrombin & trypsin (Homo sapiens) (UniProt P00734+P07477+P07478+P35030); experiment: Selectivity ratio of thrombin to trypsin; type: protein assay

Serine protease 1, sequence (P07477 whole entry): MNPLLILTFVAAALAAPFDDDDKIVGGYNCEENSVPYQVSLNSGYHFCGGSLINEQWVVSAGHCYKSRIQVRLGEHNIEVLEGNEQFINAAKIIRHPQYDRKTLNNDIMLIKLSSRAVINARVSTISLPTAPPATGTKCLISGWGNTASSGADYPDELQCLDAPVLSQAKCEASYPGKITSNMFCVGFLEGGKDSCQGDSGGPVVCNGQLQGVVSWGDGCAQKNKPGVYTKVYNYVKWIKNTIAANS

SMILES	pKi [1]	pKi [3]	pKi [4]	Ratio [7]	Concentration [2] [µM]	Concentration [5] [µM]	Concentration [6] [µM]
Cn1cc2c(n1)CCC(NC(=O)[C@@H]1CCCN1C(=O)[C@@H](CC1CCCCC1)NS(=O)(=O)Cc1ccccc1)C2 (stereo partly drawn)	3.14						
CC(C)(C)OC(=O)N[C@@H](C(=O)N1CCC[C@H]1C(=O)NCC1CCc2n[nH]cc2C1)C(c1ccccc1)c1ccccc1 (stereo partly drawn)		4.07	6.28		29.2	81	105
Nc1ncc2c(n1)CCC(CNC(=O)[C@@H]1CCCN1C(=O)[C@@H](CC1CCCCC1)NS(=O)(=O)Cc1ccccc1)C2 (stereo partly drawn)	< 4.17	< 4.12	< 4.45				
Nc1ncc2c(n1)CCC(NC(=O)[C@@H]1CCCN1C(=O)[C@@H](CC1CCCCC1)NS(=O)(=O)Cc1ccccc1)C2 (stereo partly drawn)	< 4.17	< 4.12	< 4.45				
O=C(O)CN[C@H](CC1CCCCC1)C(=O)N1CCC[C@H]1C(=O)NCC1CCc2n[nH]cc2C1 (stereo partly drawn)	4.70	4.07		71	4.9	28	55.3
N[C@H](Cc1ccc(Cl)c(Cl)c1)C(=O)N1CCC[C@H]1C(=O)NCC1CCc2n[nH]cc2C1 (stereo partly drawn)	< 4.17	< 4.12	6.16	> 99			
O=C(NCC1CCc2n[nH]cc2C1)[C@@H]1CCCN1C(=O)[C@@H](CC1CCCCC1)NS(=O)(=O)Cc1ccccc1 (stereo partly drawn)	< 4.17	< 4.12		> 478	11	42.3	78.3
O=C(NCC1CCc2ncncc2C1)[C@@H]1CCCN1C(=O)[C@@H](CC1CCCCC1)NS(=O)(=O)Cc1ccccc1 (stereo partly drawn)	3.47	3.95					
CC(C)(C)OC(=O)N[C@H](Cc1ccc(Cl)c(Cl)c1)C(=O)N1CCC[C@H]1C(=O)NCC1CCc2nc(N)ncc2C1 (stereo partly drawn)	< 4.17	< 4.12	< 4.45				
Nc1ncc2c(n1)CCC(CNC(=O)[C@@H]1CCCN1C(=O)[C@H](N)Cc1ccc(Cl)c(Cl)c1)C2 (stereo partly drawn)	< 4.17	< 4.12	< 4.45				

The next lines start with results.

pKi [1]	pKi [3]	pKi [4]	Ratio [7]	SMILES	Concentration [2] [µM]	Concentration [5] [µM]	Concentration [6] [µM]
< 4.17	< 4.12	5.48	> 21	CC(C)(C)OC(=O)N[C@H](Cc1ccc(Cl)c(Cl)c1)C(=O)N1CCC[C@H]1C(=O)NCC1CCc2n[nH]cc2C1 (stereo partly drawn)			
3.66	4.09			N[C@@H](C(=O)N1CCC[C@H]1C(=O)NCC1CCc2n[nH]cc2C1)C(c1ccccc1)c1ccccc1 (stereo partly drawn)			
3.39	4.24	4.89	32	Nc1ncc2c(n1)CCC(CNC(=O)[C@@H]1CCCN1C(=O)[C@H](N)C(c1ccccc1)c1ccccc1)C2 (stereo partly drawn)			
3.38		4.56	15	O=C(NC1CCc2c[nH]cc2C1)[C@@H]1CCCN1C(=O)[C@@H](CC1CCCCC1)NS(=O)(=O)Cc1ccccc1 (stereo partly drawn)			
< 4.17	< 4.12	5.27	> 13	O=C(NC1CCc2n[nH]cc2C1)[C@@H]1CCCN1C(=O)[C@@H](CC1CCCCC1)NS(=O)(=O)Cc1ccccc1 (stereo partly drawn)			
